Legend:
[1] = tested on: P. falciparum NF54 gametocytes; assay: gametocyte viability assay (AlamarBlue); format: cell-based, Plasmodium falciparum; settings: for IC50: P. falciparum NF54 stage III-V gametocytes, 72 h, AlamarBlue, mean ± SD, n = 3; for Asexual/Gametocyte: ratio of asexual IC50 to gametocyte IC50; for ratio of IC50s, lower IC50 in gametocyte viability assay than in asexual parasite growth assay: asexual versus gametocyte
Experimental: (§1) Asexual parasites of P. falciparum strain NF54 were cultured as described previously. Briefly, parasites were maintained in RPMI 1640 medium containing 10% positive human serum + erythrocytes (5% haematocrit), 2.5% sodium bicarbonate and 11 µg/mL gentamicin at 37 °C with 5% CO2, 5% O2 and 90% N2. Gametocyte cultures were set up at 0.1% parasitaemia and on days 9–10 treated with 50 mM N-acetylglucosamine (NAG) to block further asexual growth. Stage III–V gametocytes were isolated by Percoll density gradient centrifugation on day 12 and returned to culture for 24 h before being used in the assay. At the time of the assay over 73% of the gametocytes were stage IV or V (Additional file 1). HepG2 cells (ATCC, cat. no. 77400) were cultured in 175-cm^2 tissue culture flasks with 30 ml growth medium at 37 °C in a 5% CO2 and 5% O2 humidified atmosphere. Growth medium was made with Dulbecco’s Modified Eagle Medium with 10% fetal bovine serum (FBS). Growth medium was replaced every other day and cells were passaged at 75% confluence.
Compounds from the Sytravon library (a retired Pharma screening collection that contains a diversity of novel small molecules, with an emphasis on medicinal chemistry-tractable scaffolds) were obtained as powder samples and dissolved in DMSO as […] stock solutions. Compound screening experiments were performed as previously described. In the primary screen, two concentrations for each compound were tested. No technical and biological replicates were involved. In the follow-up confirmation studies, three biological replicates were tested for each compound in both parasite assays. The positive control was 46 µM of Torin 2 and negative control was DMSO. Briefly, 2.5 μL/well incomplete medium was dispensed into each well of 1536-well plates using the Multidrop Combi followed by 23 nL compound transferring using the NX-TR Pintool (WAKO Scientific Solutions, San Diego, CA). Then, 2.5 μL/well of gametocytes was dispensed with a seeding density of 20,000 cells/well using the Multidrop Combi. The assay plates were incubated for 72 h at 37 °C with 5% CO2. After addition of 5 μL/well of 2X AlamarBlue dye (Life Technologies, cat. no. DAL1100), the plates were incubated for 24 h at 37 °C with 5% CO2 and then were read in a fluorescence detection mode (Ex = 525 nm, Em = 598 nm) on a ViewLux plate reader (PerkinElmer).

[2] = tested on: HepG2 cells; assay: HepG2 cytotoxicity assay (AlamarBlue); format: cell-based, human; settings: for HepG2, IC50 (dash = less than 25% cytotoxicity) / IC50 / cytotoxicity at 46 µM: HepG2 cells, 72 h, AlamarBlue; for HepG2, IC50 (dash = less than 25% cytotoxicity) / cytotoxicity at 46 µM: up to 46 µM; for IC50 / maximum response, HepG2 cytotoxicity: titration 0.001 to 46 µM; for IC50: mean ± SD, n = 3; for cytotoxicity at 46 µM: Homo sapiens, read-out: HepG2, IC50 (dash = less than 25% cytotoxicity)
Experimental: as §1
Drug activity on HepG2 was tested using an AlamarBlue assay as previously described. Briefly, 5 μL/well of HepG2 cells were dispensed with a seeding density of 1000 cells/well using the Multidrop Combi. 23 nL compound was transferred using the NX-TR Pintool. After 72 h incubation under the standard culture condition, 5 μL/well of 2X AlamarBlue dye was added to the cells, the plates were incubated for 2 h at 37 °C with 5% CO2 and then were read in a fluorescence detection mode (Ex = 525 nm, Em = 598 nm) on a ViewLux plate reader.

[3] = tested on: P. falciparum NF54 asexual parasites; assay: asexual parasite growth inhibition assay (SYBR Green); format: cell-based, Plasmodium falciparum; settings: 72 h, mean ± SD, n = 3
Experimental: as §1
Drug activity on asexual stage parasites was tested using a SYBR Green assay as described previously. Briefly, 2.5 μL/well complete culture medium was dispensed into each well of 1536-well plates using the Multidrop Combi followed by 23 nL compound transferring using the NX-TR Pintool. Parasites were diluted to 0.5% parasitaemia in complete culture medium with 2% haematocrit and drugs diluted in DMSO (≤0.5%). The pre-diluted parasites were dispensed into a 1536-well plate (2.5 μL/well). After 72 h incubation under the standard culture conditions, 5 μL/well of lysis buffer containing SYBR Green I was added to the parasite culture and incubated for 30 min at room temperature. The fluorescence of each well was measured in a fluorescence detection mode (Ex = 490 nm, Em = 520 nm) using a ViewLux plate reader (PerkinElmer).

SMILES	IC50 [1]	IC50 [3]	IC50 ([1]; Plasmodium falciparum)	ratio of IC50s, lower IC50 in gametocyte viability assay than in asexual parasite growth assay [1]	IC50 ([3]; Plasmodium falciparum)	Asexual/Gametocyte [1]	HepG2, IC50 (dash = less than 25% cytotoxicity) [2]	IC50 [2]	maximum response, HepG2 cytotoxicity [2]	cytotoxicity at 46 µM [2]
Cc1cccc2nc(-c3ccccn3)c(Nc3ccccc3)n12 [NCGC00106055]	3.98 ± 1.12 µM	4.18 ± 0.68 µM	–	–	–	1.05	– (Indicates compounds with less than 25% cytotoxicity at up to 46 µM)	–	–	–
Cc1cc(Nc2ccc(F)cc2)nc(-n2nc(C)cc2C)n1 [NCGC00134124]	–	–	1.55 ± 0.11 µM	~ fourfold	5.96 ± 0.7 µM	3.85	–	–	–	< 25%
COc1ccc(Nc2cc(C)nc(-n3nc(C)cc3C)n2)cc1Cl [NCGC00134126]	–	–	1.19 ± 0.05 µM	~ fourfold	4.78 ± 0.43 µM	4.02	–	–	–	< 25%
Cc1cc(Nc2ccc(C(C)C)cc2)nc(-n2nc(C)cc2C)n1 [NCGC00134128]	–	–	1.18 ± 0.17 µM	–	1.93 ± 0.13 µM	1.64	–	–	–	< 25%
Cc1ccc2nc(-c3ccccn3)c(Nc3ccc(F)cc3)n2c1 [NCGC00106091]	2.45 ± 0.42 µM	4.51 ± 1.29 µM	–	–	–	1.84	– (Indicates compounds with less than 25% cytotoxicity at up to 46 µM)	–	–	–
Cc1ccn2c(Nc3ccccc3C)c(-c3ccccn3)nc2c1 [NCGC00106119]	2.82 ± 0.3 µM	4.22 ± 0.29 µM	–	–	–	1.50	– (Indicates compounds with less than 25% cytotoxicity at up to 46 µM)	–	–	–
Cc1ccn2c(Nc3ccc(F)cc3)c(-c3ccccn3)nc2c1 [NCGC00106780]	–	–	1.82 ± 0.11 µM	–	3.53 ± 1.21 µM	1.94	–	–	–	< 25%
Cc1ccc2nc(-c3ccccn3)c(Nc3ccccc3C)n2c1 [NCGC00106087]	3.34 ± 0.51 µM	7.49 ± 4.11 µM	–	–	–	2.24	– (Indicates compounds with less than 25% cytotoxicity at up to 46 µM)	–	–	–
Cc1cc(Nc2ccc(Cl)cc2C)nc(-n2nc(C)cc2C)n1 [NCGC00134136]	2.57 ± 0.48 µM	4.12 ± 0.1 µM	–	–	–	1.60	– (Indicates compounds with less than 25% cytotoxicity at up to 46 µM)	–	–	–
COc1ccccc1Cn1c(CNS(=O)(=O)c2cccc([N+](=O)[O-])c2)nc2cccnc21 [NCGC00134795]	4.25 ± 0.64 µM	0.96 ± 0.3 µM	–	–	–	0.23	– (Indicates compounds with less than 25% cytotoxicity at up to 46 µM)	–	–	–
CCN(CC)CCCNC(=O)CSc1c2c(nc3cc(Cl)ccc13)CCCC2 [NCGC00110901]	10.6 ± 1.32 µM	36.1 ± 15.2 µM	–	~ fourfold	–	3.41	– (Indicates compounds with less than 25% cytotoxicity at up to 46 µM)	–	–	–
Cc1cccc(Nc2cc(C)nc(-n3nc(C)cc3C)n2)c1 [NCGC00134130]	–	–	1.42 ± 0.24 µM	–	3.26 ± 0.5 µM	2.30	–	–	–	< 25%
Cc1cc(Nc2cc(F)ccc2C)nc(-n2nc(C)cc2C)n1 [NCGC00134156]	2.1 ± 0.73 µM	3.53 ± 0.27 µM	–	–	–	1.68	– (Indicates compounds with less than 25% cytotoxicity at up to 46 µM)	–	–	–
COc1ccc(Nc2c(-c3ccccn3)nc3ccc(Cl)cn23)cc1 [NCGC00104528]	8.91 ± 0.2 µM	13.9 ± 0.93 µM	–	–	–	1.56	– (Indicates compounds with less than 25% cytotoxicity at up to 46 µM)	–	–	–
COc1ccc(NC(=O)c2ccc3c(c2)N(Cc2cccc(Cl)c2)C(=O)c2ccccc2[S+]3[O-])cc1Cl (stereo not drawn) [NCGC00140326]	~60 µM	13.8 ± 0.82 µM	–	–	–	0.23	– (Indicates compounds with less than 25% cytotoxicity at up to 46 µM)	–	–	–
Cc1cc(Nc2ccc(F)cc2F)nc(-n2nc(C)cc2C)n1 [NCGC00134158]	2.08 ± 0.18 µM	4.7 ± 0.52 µM	–	–	–	2.26	– (Indicates compounds with less than 25% cytotoxicity at up to 46 µM)	–	–	–
Cc1ccc(Nc2cc(C)nc(-n3nc(C)cc3C)n2)cc1 [NCGC00134154]	–	–	1.19 ± 0.34 µM	–	2.83 ± 0.31 µM	2.38	–	–	–	< 25%

Further lines, with some results ahead:

IC50 [1]	IC50 [3]	IC50 ([1]; Plasmodium falciparum)	ratio of IC50s, lower IC50 in gametocyte viability assay than in asexual parasite growth assay [1]	IC50 ([3]; Plasmodium falciparum)	SMILES	Asexual/Gametocyte [1]	HepG2, IC50 (dash = less than 25% cytotoxicity) [2]	IC50 [2]	maximum response, HepG2 cytotoxicity [2]	cytotoxicity at 46 µM [2]
11.9 ± 2.05 µM	3.44 ± 0.24 µM	–	–	–	CC(C)(C)OC(=O)N1CCC(c2c(C(=O)NCCN3CCC(Cc4ccccc4)CC3)cnn2-c2ccccc2)CC1 [NCGC00127017]	0.29	–	25.3 µM	87.6%	–
4.82 ± 0.21 µM	0.54 ± 0.05 µM	–	–	–	CCc1ccc(Oc2c(C(F)(F)F)oc3c(CN4CCN(CC)CC4)c(O)ccc3c2=O)cc1 [NCGC00101506]	0.11	– (Indicates compounds with less than 25% cytotoxicity at up to 46 µM)	–	–	–
31.3 ± 12.8 µM	7.49 ± 0.86 µM	–	–	–	CC(C)(C)OC(=O)N1CCC(c2c(C(=O)NCCN3CCC(Cc4ccccc4)CC3)cnn2-c2cccc(Cl)c2)CC1 [NCGC00126892]	0.24	–	34.4 µM	93.0%	–
20.3 ± 0.31 µM	3.05 ± 0.27 µM	–	–	–	CC(C)(C)OC(=O)N1CCC(c2c(C(=O)NCCN3CCOCC3)cnn2-c2ccccc2)CC1 [NCGC00127015]	0.15	–	38.4 µM	87.2%	–
30.6 ± 1.95 µM	1.47 ± 0.04 µM	–	–	–	COc1ccc(CCN2CCC(CNC(=O)c3cnn(-c4ccccc4)c3C3CCN(C(=O)OC(C)(C)C)CC3)CC2)cc1 [NCGC00126987]	0.05	–	38.6 ± 0.42 µM	86.1%	–
35.2 ± 4.52 µM	32.1 ± 12.6 µM	–	–	–	CN1CCN(c2nc3c(S(=O)(=O)c4ccc(Br)cc4)nnn3c3ccsc23)CC1 [NCGC00123034]	0.92	– (Indicates compounds with less than 25% cytotoxicity at up to 46 µM)	–	–	–
6.04 ± 1.9 µM	0.63 ± 0.05 µM	–	–	–	CC(C)c1ccccc1Oc1c(C(F)(F)F)oc2c(CN3CCN(C)CC3)c(O)ccc2c1=O [NCGC00100597]	0.10	– (Indicates compounds with less than 25% cytotoxicity at up to 46 µM)	–	–	–
–	9.94 ± 0.93 µM	–	–	–	CCOc1ccccc1N(C)C(=O)Cn1cnc2sc(C)c(S(=O)(=O)N3CCC(C)CC3)c2c1=O [NCGC00104044]	0.26	– (Indicates compounds with less than 25% cytotoxicity at up to 46 µM)	–	–	–
–	–	1.29 ± 0.29 µM	–	2.22 ± 0.35 µM	CC(C)c1ccc(Nc2c(-c3ccccn3)nc3ccccn23)cc1 [NCGC00104490]	1.72	–	–	–	< 25%
4.86 ± 0.03 µM	1.07 ± 0.37 µM	–	–	–	Cc1ccc(C)c(Oc2c(C(F)(F)F)oc3c(CN4CCN(C)CC4)c(O)ccc3c2=O)c1 [NCGC00141020]	0.22	– (Indicates compounds with less than 25% cytotoxicity at up to 46 µM)	–	–	–

Reference: PMC5390467, “Novel lead structures with both Plasmodium falciparum gametocytocidal and asexual blood stage activity identified from high throughput compound screening” (Malaria Journal, 2017)
